Active and inactive are the calls of the source.
How the values were obtained:
[1] = biological target: T1, Apoptotic protease-activating factor 1 (Homo sapiens, UniProt O14727); type: functional
T1 sequence (O14727 whole entry): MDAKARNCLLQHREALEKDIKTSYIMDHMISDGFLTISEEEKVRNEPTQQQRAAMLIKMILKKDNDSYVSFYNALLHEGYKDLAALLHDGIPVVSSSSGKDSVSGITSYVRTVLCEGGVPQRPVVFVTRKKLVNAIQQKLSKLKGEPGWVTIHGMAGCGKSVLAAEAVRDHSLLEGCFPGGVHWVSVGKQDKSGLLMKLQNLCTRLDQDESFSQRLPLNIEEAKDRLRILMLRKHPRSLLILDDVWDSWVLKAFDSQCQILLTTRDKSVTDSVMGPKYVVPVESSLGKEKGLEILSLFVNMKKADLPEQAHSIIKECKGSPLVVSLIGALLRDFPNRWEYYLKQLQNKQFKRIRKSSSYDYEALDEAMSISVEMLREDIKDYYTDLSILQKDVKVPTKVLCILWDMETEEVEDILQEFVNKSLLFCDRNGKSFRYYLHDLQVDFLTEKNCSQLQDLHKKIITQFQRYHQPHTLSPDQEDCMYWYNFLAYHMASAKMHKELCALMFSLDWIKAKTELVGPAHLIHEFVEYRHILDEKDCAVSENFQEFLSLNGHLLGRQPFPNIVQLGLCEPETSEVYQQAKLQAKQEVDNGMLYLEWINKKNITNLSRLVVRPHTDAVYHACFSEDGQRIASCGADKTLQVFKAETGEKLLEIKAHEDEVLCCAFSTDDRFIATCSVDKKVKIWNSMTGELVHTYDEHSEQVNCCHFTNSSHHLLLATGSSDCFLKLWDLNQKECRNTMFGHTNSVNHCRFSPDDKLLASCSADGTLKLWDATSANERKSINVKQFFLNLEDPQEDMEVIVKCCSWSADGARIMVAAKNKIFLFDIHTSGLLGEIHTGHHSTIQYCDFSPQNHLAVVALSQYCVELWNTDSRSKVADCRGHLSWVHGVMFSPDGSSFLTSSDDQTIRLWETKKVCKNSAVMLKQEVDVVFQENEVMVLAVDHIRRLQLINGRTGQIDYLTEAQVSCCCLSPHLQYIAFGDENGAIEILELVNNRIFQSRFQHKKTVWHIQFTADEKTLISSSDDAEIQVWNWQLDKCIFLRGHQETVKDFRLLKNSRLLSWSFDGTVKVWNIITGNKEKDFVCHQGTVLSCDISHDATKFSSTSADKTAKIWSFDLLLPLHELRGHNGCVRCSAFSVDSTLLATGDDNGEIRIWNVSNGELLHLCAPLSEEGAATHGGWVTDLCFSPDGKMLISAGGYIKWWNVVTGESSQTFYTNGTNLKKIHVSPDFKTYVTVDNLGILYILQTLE

[2] = biological target: T2, Histone-lysine N-methyltransferase NSD2 (Homo sapiens, UniProt O96028); type: biochemical
T2 sequence (O96028 whole entry): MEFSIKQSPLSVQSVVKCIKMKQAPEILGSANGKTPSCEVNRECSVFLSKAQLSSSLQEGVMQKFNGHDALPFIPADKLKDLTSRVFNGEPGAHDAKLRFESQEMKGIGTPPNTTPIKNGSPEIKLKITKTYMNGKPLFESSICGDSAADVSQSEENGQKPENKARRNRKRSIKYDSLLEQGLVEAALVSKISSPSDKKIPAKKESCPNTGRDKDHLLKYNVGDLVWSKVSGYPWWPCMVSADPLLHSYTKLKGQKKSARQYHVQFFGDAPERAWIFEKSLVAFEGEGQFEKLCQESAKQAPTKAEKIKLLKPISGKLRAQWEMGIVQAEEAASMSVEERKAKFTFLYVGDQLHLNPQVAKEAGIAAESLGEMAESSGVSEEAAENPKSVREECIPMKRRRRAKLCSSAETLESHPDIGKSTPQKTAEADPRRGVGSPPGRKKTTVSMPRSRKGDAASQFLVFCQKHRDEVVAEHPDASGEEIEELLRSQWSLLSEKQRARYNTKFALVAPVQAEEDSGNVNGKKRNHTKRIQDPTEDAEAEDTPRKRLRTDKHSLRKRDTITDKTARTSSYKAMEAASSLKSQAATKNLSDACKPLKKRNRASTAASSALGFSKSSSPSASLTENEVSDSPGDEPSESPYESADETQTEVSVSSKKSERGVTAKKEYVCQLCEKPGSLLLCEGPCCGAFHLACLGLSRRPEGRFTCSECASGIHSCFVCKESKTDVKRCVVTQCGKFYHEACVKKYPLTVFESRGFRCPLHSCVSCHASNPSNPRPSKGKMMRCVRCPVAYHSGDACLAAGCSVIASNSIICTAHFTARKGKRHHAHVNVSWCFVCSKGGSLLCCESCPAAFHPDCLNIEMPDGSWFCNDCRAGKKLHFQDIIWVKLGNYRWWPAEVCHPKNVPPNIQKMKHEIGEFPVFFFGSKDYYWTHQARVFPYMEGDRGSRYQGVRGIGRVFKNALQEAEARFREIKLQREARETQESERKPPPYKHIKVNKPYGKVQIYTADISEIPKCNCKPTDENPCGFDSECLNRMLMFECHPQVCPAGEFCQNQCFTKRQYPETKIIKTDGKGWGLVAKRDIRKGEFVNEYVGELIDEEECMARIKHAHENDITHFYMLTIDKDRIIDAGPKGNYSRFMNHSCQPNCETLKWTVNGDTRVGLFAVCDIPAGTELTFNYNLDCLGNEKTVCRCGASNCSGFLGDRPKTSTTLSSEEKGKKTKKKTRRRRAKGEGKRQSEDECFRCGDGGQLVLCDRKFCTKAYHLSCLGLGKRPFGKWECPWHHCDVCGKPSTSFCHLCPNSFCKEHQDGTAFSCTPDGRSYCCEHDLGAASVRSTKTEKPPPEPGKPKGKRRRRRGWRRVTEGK

Cc1ccc(C(=O)NNc2cc(N3CCCC3)nc(N3CCCC3)n2)cc1
IC50 [1]: 5.08 µM (active)

COC(=O)c1cccc(-c2ccc(C(c3c(C)n[nH]c3O)c3c(C)n[nH]c3O)o2)c1
AC50 [2]: > 20 µM (inactive)

O=C1/C(=N\c2cccc(O)c2)C(N2CCCCC2)=C(O)c2ccccc21
AC50 [2]: 8.12 µM (active)
IC50 [1]: 4.03 µM (active)
